Values of other authors as cited in patent US10783985B2, “Physics-based computational methods for predicting compound solubility” (Schrödinger, LLC, priority 2015, dated 2020).
Values belong to the compound of their own block, whether it stands above or below them.

Settings: for Expt. Solubility: Table 1, experimentally determined
[1] = experimental, Ilevbare and Taylor 2013

Compound: Clc1ccccc1C(c1ccccc1)(c1ccccc1)n1ccnc1 [clotrimazole]
Expt. Solubility: 1.16 µM

Compound: CN1CCN(C2=Nc3cc(Cl)ccc3Nc3ccccc32)CC1 [clozapine]
Expt. Solubility: 26.93 µM

Compound: CCOC(=O)C1=C(C)NC(C)=C(C(=O)OC)C1c1cccc(Cl)c1Cl (stereo not shown) [felodipine]
"amorphous" solubility [1]: 22.1 µM
"equilibrium" solubility [1]: 2.5 µM
solubility class (BCS), experimental data (felodipine comparison data): low solubility (BCS Class II/IV)

Now from value to compound:

aqueous solubility (experimental, NIH Pubchem database, printed conversion of the mg/L value): ~36,000 μM
Compound: CC(=O)Nc1ccc(O)cc1 [acetaminophen]

Expt. Solubility: 8.38 µM
Compound: COc1ccc2c(c1)c(CC(=O)O)c(C)n2C(=O)c1ccc(Cl)cc1 [indomethacin]
